Results published in patent US11236129B2, “IL-17A binding peptides and medical uses thereof” (Dompe' Farmaceutici S.P.A., priority 2018, dated 2022).
Like-named read-outs stand apart in the source and are kept apart here. Residues, ends and D or L forms follow the SMILES beside them.

Experiments:
[1] = Isoelectric point, log D and log P (SiriusT3); assay type: physicochemical; details: for IP (isoelectric point): 25±1° C., 0.15 M KCl; for logD: pH 7.4, pH 7.4, octanol/ISA water, read-out: Log D (7.4)
[2] = molecular target: IL-17RA/IL17RC dimerization induced by IL-17A (Homo sapiens, UniProt Q16552); assay: IL-17RA/IL17RC dimerization assay in response to IL-17A (PathHunter Cytokine Receptor Assay); assay type: cell-based; details: IL-17A at EC80; read-out: IC50 in IL-17RA/IL7RC dimerization assay
Chain of IL-17RA/IL17RC dimerization induced by IL-17A (Q16552 24-155): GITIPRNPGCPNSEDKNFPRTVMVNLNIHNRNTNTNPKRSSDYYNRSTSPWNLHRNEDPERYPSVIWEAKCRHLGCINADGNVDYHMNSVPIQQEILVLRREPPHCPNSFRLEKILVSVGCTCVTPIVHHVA
Summary of the method: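 Receptor dimerization was read as chemiluminescence from complemented β-galactosidase after IL-17A at EC80 concentration for 6–16 h at 37 °C. Peptides were added 60 min before agonist, at 37 °C or room temperature, with 1% vehicle. Percent inhibition used the EC80-stimulated and vehicle wells as references.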

[3] = assay type: physicochemical; details: pH 7.8
Summary of the method: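 Peptides dissolved in phosphate buffer pH 7.8 as 10 mM stocks (more dilute for less soluble ones) and stored at 25 °C. Content measured by reversed-phase UHPLC (C18, 0.5% formic acid water/acetonitrile gradient, DAD 220-400 nm, ESI-MS ion trap) after 1:100 dilution to 100 μM, against 100 μM standards, at T0, 3 days and 1 week.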

[4] = octanol/ISA water, read-out: logP

SMILES | IP (isoelectric point) [1] | logP [1, 4] | logD [1] | IC50 [2] | solubility [3] | logP [1] | Log D (7.4) ([1]; pH 7.4)
CC[C@H](C)[C@H](NC(=O)[C@H](Cc1c[nH]c2ccccc12)NC(=O)[C@H](CCC(=O)O)NC(=O)[C@H](Cc1ccc(O)cc1)NC(=O)[C@H](CC(C)C)NC(=O)[C@H](CC(=O)O)NC(=O)[C@H](C)NC(=O)[C@@H]1CCCN1C(=O)[C@@H](NC(=O)[C@@H](NC(=O)[C@@H](NC(=O)[C@H](CCSC)NC(=O)[C@@H](NC(C)=O)C(C)C)C(C)C)[C@@H](C)O)[C@@H](C)CC)C(=O)N[C@@H](CCC(=O)O)C(=O)N[C@@H](CCC(=O)O)C(=O)NCC(=O)NCC(=O)N[C@@H](CCCCN)C(=O)N[C@@H](CCC(=O)O)C(=O)N[C@H](C(=O)N[C@@H](Cc1c[nH]c2ccccc12)C(=O)N[C@@H](Cc1c[nH]c2ccccc12)C(=O)N[C@@H](CCC(=O)O)C(=O)N[C@H](C(=O)N[C@@H](Cc1c[nH]c2ccccc12)C(N)=O)[C@@H](C)O)[C@@H](C)O [SEQ ID NO: 25] (Ac-VMVTIPADLYEWIEEGGKETWWETW-NH2) | 4.66 | 0.4 | -5.64 | < 1000 nM | ≥ 100 µM |  | 
CC[C@H](C)[C@H](NC(=O)[C@H](Cc1c[nH]c2ccccc12)NC(=O)[C@H](CCC(=O)O)NC(=O)[C@H](Cc1ccc(O)cc1)NC(=O)[C@H](CC(C)C)NC(=O)[C@H](CC(=O)O)NC(=O)[C@H](C)NC(=O)[C@@H]1CCCN1C(=O)[C@@H](NC(=O)[C@@H](NC(=O)[C@@H](NC(=O)[C@H](CCSC)NC(=O)[C@@H](NC(C)=O)C(C)C)C(C)C)[C@@H](C)O)[C@@H](C)CC)C(=O)N[C@@H](CCC(=O)O)C(=O)N[C@@H](CCC(=O)O)C(=O)N[C@H](C(=O)N1CCC[C@H]1C(=O)NCC(=O)N[C@@H](CCCCN)C(=O)NCC(N)=O)C(C)C [SEQ ID NO: 26] (Ac-VMVTIPADLYEWIEEVPGKG-NH2) | 8.13 | 0.69 | 0.148 | < 1000 nM | > 10000 µM |  | 
CC[C@H](C)[C@H](NC(=O)[C@H](Cc1c[nH]c2ccccc12)NC(=O)[C@H](CCC(=O)O)NC(=O)[C@H](Cc1ccc(O)cc1)NC(=O)[C@H](CC(C)C)NC(=O)[C@H](CC(=O)O)NC(=O)[C@H](C)NC(=O)[C@@H]1CCCN1C(=O)[C@@H](NC(=O)[C@@H](NC(=O)[C@@H](NC(=O)[C@H](CCSC)NC(=O)[C@@H](NC(C)=O)C(C)C)C(C)C)[C@@H](C)O)[C@@H](C)CC)C(=O)N[C@@H](CCC(=O)O)C(=O)N[C@@H](CCC(=O)O)C(=O)N[C@H](C(=O)N1CCC[C@H]1C(=O)NCC(=O)N[C@@H](C)C(=O)NCC(N)=O)C(C)C [SEQ ID NO: 27] (Ac-VMVTIPADLYEWIEEVPGAG-NH2) | 5.14 | 0.69 | 0.148 | < 1000 nM | > 10000 µM |  | 
CC[C@H](C)[C@H](NC(=O)[C@H](Cc1c[nH]c2ccccc12)NC(=O)[C@H](CCC(=O)O)NC(=O)[C@H](Cc1ccc(O)cc1)NC(=O)[C@H](CC(C)C)NC(=O)[C@H](CC(=O)O)NC(=O)[C@H](C)NC(=O)[C@@H]1CCCN1C(=O)[C@@H](NC(=O)[C@@H](NC(=O)[C@@H](NC(=O)[C@H](CCSC)NC(=O)[C@@H](NC(C)=O)C(C)C)C(C)C)[C@@H](C)O)[C@@H](C)CC)C(=O)N[C@@H](CCC(=O)O)C(=O)N[C@@H](CCC(=O)O)C(=O)N[C@@H](CCCNC(=N)N)C(=O)N[C@@H](CCC(N)=O)C(=O)N[C@H](C(=O)N[C@@H](CCCCN)C(=O)N[C@H](C(=O)N[C@@H](Cc1c[nH]c2ccccc12)C(=O)N[C@@H](Cc1ccccc1)C(=O)N[C@@H](CCC(N)=O)C(=O)N[C@@H](CC(N)=O)C(=O)N[C@@H](CCCNC(=N)N)C(=O)N[C@@H](CCCNC(=N)N)C(=O)N[C@@H](CCSC)C(=O)N[C@@H](CCCCN)C(=O)N[C@@H](Cc1c[nH]c2ccccc12)C(=O)N[C@@H](CCCCN)C(=O)N[C@@H](CCCCN)C(N)=O)[C@@H](C)CC)[C@@H](C)CC [SEQ ID NO: 28] (Ac-VMVTIPADLYEWIEERQIKIWFQNRRMKWKK-NH2) | 12.25 |  |  | < 1000 nM | ≥ 100 µM | −6.36 | −6.44
CC[C@H](C)[C@H](NC(=O)[C@H](Cc1c[nH]c2ccccc12)NC(=O)[C@H](CCC(=O)O)NC(=O)[C@H](Cc1ccc(O)cc1)NC(=O)[C@H](CC(C)C)NC(=O)[C@H](CC(=O)O)NC(=O)[C@H](C)NC(=O)[C@@H]1CCCN1C(=O)[C@@H](NC(=O)[C@@H](NC(=O)[C@@H](NC(=O)[C@H](CCSC)NC(=O)[C@@H](NC(=O)[C@H](CCCNC(=N)N)NC(=O)[C@H](CCCNC(=N)N)NC(=O)[C@H](CCCNC(=N)N)NC(=O)[C@H](CCCNC(=N)N)NC(=O)[C@H](CCCNC(=N)N)NC(=O)[C@H](CCCNC(=N)N)NC(=O)[C@H](CCCNC(=N)N)NC(=O)[C@H](CCCNC(=N)N)NC(C)=O)C(C)C)C(C)C)[C@@H](C)O)[C@@H](C)CC)C(=O)N[C@@H](CCC(=O)O)C(=O)N[C@@H](CCC(=O)O)C(N)=O [SEQ ID NO: 29] (Ac-RRRRRRRRVMVTIPADLYEWIEE-NH2) | 12.25 |  |  | < 1000 nM | > 10000 µM |  | 
CC[C@H](C)[C@H](NC(=O)[C@H](Cc1c[nH]c2ccccc12)NC(=O)[C@H](CCC(=O)O)NC(=O)[C@H](Cc1ccc(O)cc1)NC(=O)[C@H](CC(C)C)NC(=O)[C@H](CC(=O)O)NC(=O)[C@H](C)NC(=O)[C@@H]1CCCN1C(=O)[C@@H](NC(=O)[C@@H](NC(=O)[C@@H](NC(=O)[C@H](CCSC)NC(=O)[C@@H](NC(C)=O)C(C)C)C(C)C)[C@@H](C)O)[C@@H](C)CC)C(=O)N[C@@H](CCC(=O)O)C(=O)N[C@@H](CCC(=O)O)C(=O)N[C@@H](CCCNC(=N)N)C(=O)N[C@@H](CCCNC(=N)N)C(=O)N[C@@H](CCCNC(=N)N)C(=O)N[C@@H](CCCNC(=N)N)C(=O)N[C@@H](CCCNC(=N)N)C(=O)N[C@@H](CCCNC(=N)N)C(=O)N[C@@H](CCCNC(=N)N)C(=O)N[C@@H](CCCNC(=N)N)C(N)=O [SEQ ID NO: 30] (Ac-VMVTIPADLYEWIEERRRRRRRR-NH2) | 12.96 |  | -3.89 | < 1000 nM | ≥ 100 µM |  | 
CC[C@H](C)[C@H](NC(=O)[C@H](Cc1c[nH]c2ccccc12)NC(=O)[C@H](CCC(=O)O)NC(=O)[C@H](Cc1ccc(O)cc1)NC(=O)[C@H](CC(C)C)NC(=O)[C@H](CC(=O)O)NC(=O)[C@H](C)NC(=O)[C@@H]1CCCN1C(=O)[C@@H](NC(=O)[C@@H](NC(=O)[C@@H](NC(=O)[C@H](CCSC)NC(=O)[C@@H](NC(=O)[C@H](C)NC(=O)[C@H](CCCCN)NC(=O)[C@H](C)NC(=O)[C@H](C)NC(=O)[C@H](CCCCN)NC(=O)[C@H](CCCCN)NC(=O)[C@H](CCCNC(=N)N)NC(=O)[C@H](C)NC(C)=O)C(C)C)C(C)C)[C@@H](C)O)[C@@H](C)CC)C(=O)N[C@@H](CCC(=O)O)C(=O)N[C@@H](CCC(=O)O)C(N)=O [SEQ ID NO: 31] (Ac-ARKKAAKAVMVTIPADLYEWIEE-NH2) | 12.5 | -4.9 | -3.59 | < 1000 nM | > 10000 µM |  | 
CC[C@H](C)[C@H](NC(=O)[C@H](Cc1c[nH]c2ccccc12)NC(=O)[C@H](CCC(=O)O)NC(=O)[C@H](Cc1ccc(O)cc1)NC(=O)[C@H](CC(C)C)NC(=O)[C@H](CC(=O)O)NC(=O)[C@H](C)NC(=O)[C@@H]1CCCN1C(=O)[C@@H](NC(=O)[C@@H](NC(=O)[C@@H](NC(=O)[C@H](CCSC)NC(=O)[C@@H](NC(=O)[C@H](CCC(N)=O)NC(=O)[C@H](CO)NC(=O)[C@H](Cc1c[nH]c2ccccc12)NC(=O)[C@H](CCC(=O)O)NC(=O)[C@@H](NC(=O)[C@H](Cc1c[nH]c2ccccc12)NC(=O)[C@H](Cc1c[nH]c2ccccc12)NC(=O)[C@@H](NC(=O)CNC(=O)CNC(C)=O)[C@@H](C)O)[C@@H](C)O)C(C)C)C(C)C)[C@@H](C)O)[C@@H](C)CC)C(=O)N[C@@H](CCC(=O)O)C(=O)N[C@@H](CCC(=O)O)C(N)=O [SEQ ID NO: 32] (Ac-GGTWWTEWSQVMVTIPADLYEWIEE-NH2) |  |  | -3.59 | < 1000 nM | < 50 µM |  | 
CC[C@H](C)[C@H](NC(=O)[C@H](Cc1c[nH]c2ccccc12)NC(=O)[C@H](CCC(=O)O)NC(=O)[C@H](Cc1ccc(O)cc1)NC(=O)[C@H](CC(C)C)NC(=O)[C@H](CC(=O)O)NC(=O)[C@H](C)NC(=O)[C@@H]1CCCN1C(=O)[C@@H](NC(=O)[C@@H](NC(=O)[C@@H](NC(=O)[C@H](CCSC)NC(=O)[C@@H](NC(=O)[C@H](Cc1c[nH]c2ccccc12)NC(=O)[C@@H](NC(=O)[C@H](CCC(=O)O)NC(=O)[C@H](Cc1c[nH]c2ccccc12)NC(=O)[C@H](Cc1c[nH]c2ccccc12)NC(=O)[C@@H](NC(=O)[C@H](CCC(=O)O)NC(=O)[C@H](CCCCN)NC(=O)CNC(=O)CNC(C)=O)[C@@H](C)O)[C@@H](C)O)C(C)C)C(C)C)[C@@H](C)O)[C@@H](C)CC)C(=O)N[C@@H](CCC(=O)O)C(=O)N[C@@H](CCC(=O)O)C(N)=O [SEQ ID NO: 33] (Ac-GGKETWWETWVMVTIPADLYEWIEE-NH2) | 4.46 | 1.99 | -1.06 | < 1000 nM | ≥ 100 µM |  | 
CC[C@H](C)[C@H](NC(=O)[C@H](Cc1c[nH]c2ccccc12)NC(=O)[C@H](CCC(=O)O)NC(=O)[C@H](Cc1ccc(O)cc1)NC(=O)[C@H](CC(C)C)NC(=O)[C@H](CC(=O)O)NC(=O)[C@H](C)NC(=O)[C@@H]1CCCN1C(=O)[C@@H](NC(=O)[C@@H](NC(=O)[C@@H](NC(=O)[C@H](CCSC)NC(=O)[C@@H](NC(=O)CNC(=O)[C@H](Cc1c[nH]c2ccccc12)NC(=O)CNC(=O)[C@@H]1CCCN1C(=O)[C@@H](NC(C)=O)C(C)C)C(C)C)C(C)C)[C@@H](C)O)[C@@H](C)CC)C(=O)N[C@@H](CCC(=O)O)C(=O)N[C@@H](CCC(=O)O)C(N)=O [SEQ ID NO: 34] (Ac-VPGWGVMVTIPADLYEWIEE-NH2) | 5.14 | -5.43 | -3.38 | < 1000 nM | < 50 µM |  | 
